Assay results reported in patent US20240075093A1, “COMPOSITIONS AND METHODS OF TREATING A PI3K MEDIATED DISEASE” (VIRGINIA TECH INTELLECTUAL PROPERTIES, INC., priority 2020, published 2024).
Where no end group is shown, it is not given here.

Key:
[1] = intracellular half-life of Selectide-18-FITC; type: cell-based; settings: human, UACC-62 melanoma cells (intracellular); FITC intensity normalized to 1 h; read-out: half-life (HL) in cells (converted)
Experimental: (§1) (FIG. 52A) Cells were treated with 10 μM Selectide-18-FITC for 1 h and imaged immediately or after 96h. (FIG. 52B) Selectide-18-FITC in melanoma cells were imaged at different times. FITC was quantified using Image J and FITC intensities at different times were normalized with that at 1 h. Half-life was calculated using GraphPad. (FIG. 52C) UACC-62, MelST, or MeWo cells were treated with 50 μM of Selectide-18 for 4 days with daily repeated dosing. (FIG. 52D) MelST or melanoma cells were treated with 50 μM of Selectide-18 for 6 days with daily repeated dosing. Cell viability was measured using Cell-Titer Blue. (FIG. 52E) MelST, UACC-62, or MeWo cells were treated with Scramble or Selectide-18 at different doses. IC50s were calculated using GraphPad. (FIG. 52F) Nod scid mice bearing UACC-62 subcutaneous tumors were treated with Selectide-18 (3 mg/kg) intratumoral injection/daily) for 16 days. Tumors were measured using a caliper and tumor volumes were calculated as (length×width2))/2. Student t test or ANOVA was used to determine P values. ns: not significant; **: P<0.01; ***P<0.001.

PI3K in UACC-62 cells = assay: PI3K activity after Selectide-18; type: cell-based; settings: 50 μM, 4 days, daily repeated dosing
Experimental: as §1

PI3K in MelST cells = assay: PI3K activity after Selectide-18; type: cell-based; settings: 50 μM, 4 days, daily repeated dosing
Experimental: as §1

PI3K in MeWo cells = assay: PI3K activity after Selectide-18; type: cell-based; settings: 50 μM, 4 days, daily repeated dosing
Experimental: as §1

[2] = uptake and intracellular half-life of Selectide-18-FITC; type: cell-based; settings: human, SKMEL-147 melanoma cells (intracellular); FITC intensity normalized to 1 h; read-out: half-life (HL) in cells (converted)
Experimental: as §1

MDA-MB-435S cells = assay: melanoma cell viability (CellTiter Blue); type: cell-based; settings: 50 μM, 6 days, daily repeated dosing
Experimental: (§2) (FIG. 49A) Immunoblotting of p110s and signaling molecules. 3-actin (ACTB) was used as the loading control. (FIG. 49B) Summary of genetic mutations and protein levels in melanoma cells. Information regarding hot spot mutations was retrieved from e.g., DepMap. (FIG. 49C) Cells were treated with 0-40 μM of inhibitors. Cell viability was measured using CellTiter Blue. IC50s were calculated using Graphpad.
as §1

p110β^hyper cells = assay: melanoma cell viability (CellTiter Blue); type: cell-based; settings: 50 μM Selectide-18, 6 days, daily repeated dosing
Experimental: as §2, §1

other melanoma cells = assay: melanoma cell viability (CellTiter Blue); type: cell-based; settings: 50 μM Selectide-18, 6 days, daily repeated dosing
Experimental: as §1

melanocyte MelST = type: cell-based
Experimental: as §2, with “(FIG. 49C) Cells were treated with 0-40 μM of inhibitors.” left out
as §1, with “Student t test or ANOVA was used to determine P values. ns: not significant; **: P<0.01; ***P<0.001.” left out

UACC-62 xenografts = assay: UACC-62 subcutaneous xenograft; type: in vivo, Nod scid mice; settings: 3 mg/kg, intratumoral injection daily, 16 days
Experimental: as §1

half-life of αCT1 = type: in vitro ADME; settings: cell culture treatment
U87MG cells = assay: MTS cell viability assay; type: cell-based, human; settings: 20 μM TGX-221/50 μM TMZ plus αCT1
Experimental: Cell viability was measured by the MTS assay. P values were determined using the student t test or one-way ANOVA. Error bars represent three independent experiments.
Cell viability was determined using the MTS viability assay. The vehicle DMSO was the control and set as 100%. Treated cells were normalized to DMSO-treated cells. […] (FIG. 43D) Scores of Excess Over Bliss in FIG. 43C calculated using the Bliss Independence model. One-way ANOVA and student t test were used to determine statistical significance.
Cell viability was determined by the MTS cell viability assay (Promega) as described previously 21,24-27. In brief, 250 to 1,000 cells were plated in the wells of a 96-well plate-based upon the cell growth rate. Because the drug treatment usually takes 6-7 days, fast-growing cells could be over-grown if plated at a high cell density. For αCT1 treatment experiments, Applicant intended to plate cells at a low density to minimize the formation of gap junctions, and thus, more Cx43-hemichannels can be present. […] At each hour time point, the absorbance at 490 nm was measured using a FilterMax F3 microplate reader (Molecular Devices, LLC) according to the manufacturer's instructions. Percent cell viability was obtained by dividing the absorbance of treatment groups to those of untreated and respective vehicle control groups.

For TKKSTKTINPSKYQTIRK [Selectide-18], which half-life [1] is on record?
The half-life was 77 h.

And the PI3K activity (PI3K in UACC-62 cells)?
The PI3K activity was “inactivated PI3K”.

And the PI3K activity (PI3K in MelST cells)?
Its PI3K activity is “not”.

And the PI3K activity (PI3K in MeWo cells)?
The PI3K activity was “not”.

What about the half-life [2] of the same sequence?
Its half-life is 138 h.

What about the “sensitivity to Selectide-18” value (MDA-MB-435S cells) of the same sequence?
The value was “sensitive”.

What about the cell viability (p110β^hyper cells) of the same sequence?
The cell viability was “suppressed the viability”.

What about the cell viability (other melanoma cells) of the same sequence?
The cell viability was “without affecting”.

What about the IC50 (melanocyte MelST) of the same sequence?
Its IC50 is about 2000 µM.

What about the “in vivo growth of xenografts” value (UACC-62 xenografts) of the same sequence?
Its value is “blocked the in vivo growth”.

Which results are given for RQPKIWFPNRRKPWKKRPRPDDLEI [αCT1]?
half-life (half-life of αCT1): ~48 h; cytotoxic effect of TMZ/TGX-221 double combination upon addition of αCT1 (U87MG cells): greatly increased the cytotoxic effect
